One experiment relates to serum IgE. Nature of the experiment: Level of serum IgE in asthma mice. The experiment is classed as in vivo, mouse. The note with it: OVA asthma Balb/c mice, 5 or 15 mg/kg PO, FIG. 4. The procedure:
6 week old Balb/c female mice in the average weight of 20 g were adapted for 1 week. 2 mg of aluminum hydroxide (A8222, Sigma, St. Louis, Mo.) and 20 μg of ovalbumin (A5503, sigma, St. Louis, Mo.) were suspended in phosphate buffer (pH 7.4). Each mouse was administered with 200 μl of the phosphate buffer suspension via intraperitoneal injection for sensitization at 2 weeks intervals. The mouse was forced to inhale 1% ovalbumin (OVA) through ultrasonic atomizer for 30 minutes a day for 3 days after the first intraperitoneal injection of ovalbumin. 24 hours after the antigen administration, airway hyperreactivity was measured. 48 hours later, a lethal dose of pentobarbital (Entobar, Hanlim Pharma. Co., Ltd.) was administered to the mouse. The bronchus was opened and the alveoli were washed with 1.4 ml of saline. Then, the test samples were obtained. The normal control (NC) was not administered with ovalbumin nor inhaled. The asthma induced group (OVA) was administered with ovalbumin and inhaled to induce bronchial asthma. The comparative control was orally administered with dexamethasone (2 mg/kg, PO) one hour before the inhalation (DEX). […]
After performing the experiment of Experimental Example <3-1> above, the level of serum IgE relating to the severity of asthma was measured by enzyme immunoassay. […] Then, OD650 was measured.

Experiment [1] deals with interleukin-6 (IL-6) generation. Nature of the experiment: Inhibition of interleukin-6 (IL-6) generation in LPS-treated Raw 264.7 cells (ELISA). The experiment is classed as cell-based, mouse. The conditions noted are these: Mus musculus, RAW264.7; Raw 264.7, LPS treated; read-out: Grades of IC50 on IL-6 generation. How it is done:
Raw 264.7 cells were distributed by the same manner as described in Experimental Example <2-1>, and IL-6 included in the supernatant treated with each sample at different concentrations was measured by enzyme-linked immunosorbent assay (IL-6 ELISA kit, BD Bioscience, San Diego, Calif.).
Particularly, 10-fold diluted supernatant was distributed in a 96-well plate on which IL-6 antibody was attached, followed by adhesion for 2 hours. The supernatant remaining after the adhesion was washed with a washing buffer. The detection antibody and HRP were adhered on the washed plate for 1 hour. The remaining antibody was washed. Color development was induced by using TMB substrate. The reaction was terminated with sulfuric acid solution. Then, OD450 was measured. IL-6 in the supernatant was quantified by using the standard curve made with the standard IL-6 included in the kit. IL-6 suppression rate was calculated by measuring the same concentration that could inhibit IL-6 generation up to 50% in the LPS treated group and the results are shown in Table 8.

Results on 1 compound are retold here after patent US10053443B2, “2-phenylbenzofuran derivatives, method for preparing the same and use of the same for treating inflammatory disease” (KOREA RESEARCH INSTITUTE OF BIOSCIENCE AND BIOTECHNOLOGY, priority 2014, dated 2018).

Where only a bound is given, the exact number is not on record here.

Turning to `COc1cc(CCCO)cc2cc(-c3ccc(C)cc3)oc12` [Example 4, 3-(7-methoxy-2-p-tolylbenzofuran-5-yl)propane-1-ol], the “generation of serum IgE induced by OVA” value with serum IgE was “efficiently reduced”. Also, the IC50 in experiment [1] was at most 10 µM.
